Measurements published in ChEMBL document CHEMBL3608244, “Left-Hand Side Exploration of Novel Bacterial Topoisomerase Inhibitors to Improve Selectivity against hERG Binding” (ACS Med Chem Lett, 2015).
Converted amounts (≈) assume the structure as drawn.

Tests used:
Type in all cases: functional
[1] = test system: Mycobacterium tuberculosis; experiment: Antimycobacterial activity against moxifloxacin resistant Mycobacterium tuberculosis H37Rv harboring DNA gyraseA G88N mutant incubated for 7 days by microdilution method
[2] = test system: Mycobacterium tuberculosis; experiment: Antimycobacterial activity against 6-((1-(2-(7-chloro-2-oxo-1,8-naphthyridin-1(2H)-yl)ethyl)piperidin-4-ylamino)methyl)-2H-pyrido[3,2-b][1,4]oxazin-3(4H)-one resistant Mycobacterium tuberculosis H37Rv harboring DNA gyraseA A74V mutant incubated for 7 days by microdilution method
[3] = test system: Mycobacterium tuberculosis; experiment: Antimycobacterial activity against 1-(2-(4-((5-chloro-6-methylpyridin-3-yl)methylamino)piperidin-1-yl)ethyl)-7-fluoro-1,5-naphthyridin-2(1H)-one resistant Mycobacterium tuberculosis H37Rv harboring DNA gyraseA D89N mutant incubated for 7 days by microdilution method
[4] = test system: Mycobacterium tuberculosis; experiment: Ratio of MIC for 1-(2-(4-((5-chloro-6-methylpyridin-3-yl)methylamino)piperidin-1-yl)ethyl)-7-fluoro-1,5-naphthyridin-2(1H)-one resistant Mycobacterium tuberculosis H37Rv harboring DNA gyraseA D89N mutant to MIC for Mycobacterium tuberculosis H37Rv ATCC 27294
[5] = test system: Mycobacterium tuberculosis; experiment: Ratio of MIC for 6-((1-(2-(7-chloro-2-oxo-1,8-naphthyridin-1(2H)-yl)ethyl)piperidin-4-ylamino)methyl)-2H-pyrido[3,2-b][1,4]oxazin-3(4H)-one resistant Mycobacterium tuberculosis H37Rv harboring DNA gyraseA A74V mutant to MIC for Mycobacterium tuberculosis H37Rv ATCC 27294

For `O=C1COc2ccc(CNC3CCN(CCn4c(=O)ccc5ccc(Oc6cncnc6)nc54)CC3)nc2N1`, the MIC [1] was 0.06 µM (≈ 0.0317 µg/mL), the MIC [2] was 50 µM (≈ 26.4 µg/mL) and the MIC [3] was greater than 100 µM. The Ratio [4] was greater than 25 and the Ratio [5] was greater than 25.

For `O=C1COc2ccc(CN[C@@H]3CCN(CCn4c(=O)ccc5ncc(Oc6cccnc6)cc54)C[C@@H]3F)nc2N1`, the MIC [1] was 0.39 µM (≈ 0.213 µg/mL), the MIC [2] was 50 µM (≈ 27.3 µg/mL) and the MIC [3] was greater than 100 µM.

For `O=C1COc2ccc(CNC3CCN(CCn4c(=O)ccc5ccc(Cl)nc54)CC3)nc2N1`, the MIC [1] was less than 0.19 µM, the MIC [2] was 4 µM (≈ 1.88 µg/mL) and the MIC [3] was greater than 100 µM.

With `Cc1ncc(CNC2CCN(CCn3c(=O)ccc4ncc(F)cc43)CC2)cc1Cl` the MIC [1] was less than 0.19 µM, the MIC [2] was 2 µM (≈ 0.86 µg/mL) and the MIC [3] was greater than 100 µM.

Work on `O=C1COc2ccc(CNC3CCN(CCn4c(=O)ccc5ccc(Oc6cccnc6)nc54)CC3)nc2N1` yielded an MIC [1] of 0.78 µM (≈ 0.412 µg/mL), an MIC [2] of 8 µM (≈ 4.22 µg/mL) and an MIC [3] greater than 100 µM. It also gave a Ratio [4] greater than 25 and a Ratio [5] greater than 25.

`O=C(O)c1cn(C2CC2)c2cc(N3CCNCC3)c(F)cc2c1=O` [CIPROFLOXACIN] gave an MIC [1] of 8 µM (≈ 2.65 µg/mL), an MIC [2] of 0.5 µM (≈ 0.166 µg/mL) and an MIC [3] of 16 µM (≈ 5.3 µg/mL).

With `NNC(=O)c1ccncc1` [ISONIAZID] the MIC [1] was 0.06 µM (≈ 0.00823 µg/mL), the MIC [2] was 0.06 µM (≈ 0.00823 µg/mL) and the MIC [3] was 0.03 µM (≈ 0.00411 µg/mL).

`COc1c(N2C[C@@H]3CCCN[C@@H]3C2)c(F)cc2c(=O)c(C(=O)O)cn(C3CC3)c12` [MOXIFLOXACIN] gave an MIC [1] of 4 µM (≈ 1.61 µg/mL), an MIC [2] of 0.25 µM (≈ 0.1 µg/mL) and an MIC [3] of 2 µM (≈ 0.803 µg/mL).

`CO[C@H]1/C=C/O[C@@]2(C)Oc3c(C)c(O)c4c(O)c(c(/C=N/N5CCN(C)CC5)c(O)c4c3C2=O)NC(=O)/C(C)=C\C=C\[C@H](C)[C@H](O)[C@@H](C)[C@@H](O)[C@@H](C)[C@H](OC(C)=O)[C@@H]1C` [RIFAMPIN] showed an MIC [1] of 0.008 µM (≈ 0.00658 µg/mL) and an MIC [2] of 0.008 µM (≈ 0.00658 µg/mL).
